In paper PMC9432691, “Characterisation of a soil MINPP phytase with remarkable long-term stability and activity from Acinetobacter sp” (PLoS ONE, 2022):

Molecular target: T1, AtITPK1 (inositol tris/tetrakisphosphate kinase 1) (Arabidopsis thaliana, UniProt Q9SBA5)
T1 construct: gene ITPK1
T1 sequence (Q9SBA5 2-319): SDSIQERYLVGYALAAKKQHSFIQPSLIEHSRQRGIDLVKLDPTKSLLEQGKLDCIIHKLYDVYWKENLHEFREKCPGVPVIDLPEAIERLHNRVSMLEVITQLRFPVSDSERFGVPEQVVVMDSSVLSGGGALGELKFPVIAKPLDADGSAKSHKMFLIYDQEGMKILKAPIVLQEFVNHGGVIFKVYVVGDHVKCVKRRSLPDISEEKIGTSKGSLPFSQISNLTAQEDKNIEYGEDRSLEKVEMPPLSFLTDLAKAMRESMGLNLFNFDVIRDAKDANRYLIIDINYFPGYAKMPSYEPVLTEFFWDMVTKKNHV
Assay: pyrophosphorylation assay with […] substrate, HPLC; […] conversion
Type: biochemical

Compound: O=P(O)(O)O[C@H]1[C@H](OP(=O)(O)O)[C@@H](OP(=O)(O)O)[C@H](OP(=O)(O)O)[C@@H](OP(=O)(O)O)[C@H]1OP(=O)(O)O [InsP6, myo-inositol 1,2,3,4,5,6-hexakisphosphate]
- % conversion: 90 % conversion
